Patent publication US20100166660A1, “METHODS OF MODELING MIGRAINE PAIN AND IDENTIFYING CANDIDATE COMPOUNDS FOR THE TREATMENT OF MIGRAINE” (priority 2007, published 2010)

Experiments:
Format in all cases: in vivo, rat
rats [1] = assay: Model for allodynia: continuous drug infusion, then paw withdrawal threshold with von Frey filaments; conditions: continuous infusion (sumatriptan: 24 hour infusion at 0.6 mg/k/day); Appendix A-5
Description: We have developed a model to determine the propensity for a compound to induce allodynia upon administration. Briefly, rats are infused continuously with a drug for a specified period of time. After the time, rats are probe with von Frey filaments to determine the paw withdrawal threshold. The compound may be administered for more than 2, 3, 4, 5, 6, 7, 8, 9, 10, 11, 12, 13, 14, 15, 16, 17, 18, 19, 20, 21, 22, 23, or 24 hours.

rats [2] = assay: Oral administration of compounds in the migraine model of the invention (tactile allodynia)
From the text: Oral delivery was accomplished by using an 18-gauge gavage needle attached to a 1 cc syringe.

Male Sprague Dawley rats [3] = assay: Candidate compound effect on tactile hyperesthesia of the hindpaw induced by dural inflammation (IM cocktail)
Description: Paw withdrawal thresholds to tactile stimuli were determined in response to probing with calibrated von Frey filaments (Stoelting Co., #58011). The von Frey filaments were applied perpendicularly to the plantar surface of the hindpaw of the animal until it buckled slightly, and were held for three to six seconds. A positive response was indicated by a sharp withdrawal of the paw. The 50% paw withdrawal threshold was determined by the non-parametric method of Dixon (Dixon, Ann. Rev. Pharmacol. Toxicol. 20:441-462, 1980; also see, e.g., Chaplan et al., J. Neurosci. Meth. 53:55-63, 1994). […] This “up-down” method was repeated until three changes in behavior were determined. The pattern of positive and negative responses was tabulated.
The 50% paw withdrawal threshold was determined as (10^[Xf+kδ])/10,000, where Xf is the value of the last von Frey filament employed, k is the Dixon value for the positive/negative pattern, and δ is the mean (log) difference between stimuli. Only naïve animals with baselines of 11 to 15 grams were used in the experiment. Fifteen grams was used as the maximal cut-off. Five days post-migraine surgery, paw withdrawal thresholds were re-tested using the same habituation and von Frey procedure as stated above. Data were converted to percent “antiallodynia” by the following formula: percent antiallodynia=100×(test value−post-treatment baseline value)/(pretreatment baseline value−post-treatment baseline value).
After establishing baseline paw withdrawal thresholds, individual animals were removed from the testing chamber, the cap of the migraine intracranial guide tube was removed, and animals received an injection of either an IM cocktail (1 mM histamine, 1 mM serotonin, 1 mM bradykinin, and 1 mM prostaglandin E2) or vehicle (i.e., control) at 10 μl volume via the intracranial guide tube over a five- to ten-second period. The IM cocktail was made fresh on the day of each experiment. The cap of the intracranial guide tube was replaced, individual animals were placed back into their corresponding testing chamber, and paw withdrawal thresholds were measured at one-hour intervals over a six-hour time course. […] Data were converted to percent “antiallodynia” by the following formula: percent antiallodynia=100×(test value−post-treatment baseline value)/(pretreatment baseline value−post-treatment baseline value).
Rats were anesthetized with ketamine/xylazine (80-100 mg/kg, intraperitoneal) for stereotaxic placement of bilateral cannulae in the RVM. […]

Male Sprague Dawley rats [4] = assay: Candidate compound effect on facial tactile hyperesthesia induced by dural inflammation (IM cocktail)
Description: In another set of experiments, facial response thresholds of the rats to tactile stimuli were determined. Calibrated von Frey filaments were applied perpendicularly to the midline of the forehead within a 3 mm diameter area just above the plane of the eyes, for six to eight seconds, until the filaments buckled slightly. A positive response was indicated by a sharp withdrawal of the head, which sometimes included an attempt to grasp and/or bite the filament. Special care was taken when applying the filaments to the forehead in order to prevent a positive facial response due to dynamic force and/or deflection of the hairs. The 50% facial response threshold was determined by the non-parametric method of Dixon. […] This “up-down” method was repeated until three changes in behavior were determined. The pattern of positive and negative responses was tabulated.
The 50% facial response threshold was determined as (10^[Xf+kδ])/10,000, where Xf is the value of the last von Frey filament employed, k is the Dixon value for the positive/negative pattern, and δ is the mean (log) difference between stimuli. Only naïve animals with baselines of eight grams were used in the experiment. Eight grams was used as the maximal cut-off. […]

Male Sprague Dawley rats [5] = assay: Dural stimulus-induced tactile hyperesthesia of the hindpaw (50% paw withdrawal threshold, von Frey filaments); conditions: administered to the dura; results two hours after treatment; FIG. 4
Description: Male Sprague Dawley rats were anesthetized using ketamine/xylazine (80-100 mg/kg, intraperitoneal). The top of the head was shaved using a rodent clipper (Oster Golden A5 w/size 50 blade), and the shaved area was cleaned with betadine and 70% ethanol. Animals were placed into a stereotaxic apparatus (Stoelting Co., #51600) and the body core temperatures of 37° C. were maintained using a heating pad placed below the animals. Within the shaved and cleaned area on the head, a 2 cm incision was made using a scalpel with a #10 blade, and any bleeding was cleaned using sterile cotton swabs. […]
Paw withdrawal thresholds to tactile stimuli were determined in response to probing with calibrated von Frey filaments (Stoelting Co., #58011). […] The 50% paw withdrawal threshold was determined by the non-parametric method of Dixon (Dixon, Ann. Rev. Pharmacol. Toxicol. 20:441-462, 1980; also see, e.g., Chaplan et al., J. Neurosci. Meth. 53:55-63, 1994). […] This “up-down” method was repeated until three changes in behavior were determined. […]
The 50% paw withdrawal threshold was determined as (10^[Xf+kδ])/10,000, where Xf is the value of the last von Frey filament employed, k is the Dixon value for the positive/negative pattern, and δ is the mean (log) difference between stimuli. […]

CN1CC=C(c2c[nH]c3ccc(NC(=N)c4cccs4)cc23)CC1 [cpd 1]
induction of tactile allodynia after continuous infusion (rats [1]): do not induce tactile allodynia | attenuation of tactile allodynia in the migraine model (rats [2]; after oral administration, Appendix A-4): attenuated tactile allodynia | oral activity in the migraine model (rats [2]; oral, Appendix A-3): orally active

CCCCN1CCCCC1C(=O)Nc1c(C)cccc1C (centres unmarked) [bupivacaine]
paw withdrawal threshold versus rats with dural IM cocktail but no compound (Male Sprague Dawley rats [3]; administration in the RVM thirty minutes after IM cocktail, FIG. 9A): increase in paw withdrawal threshold | paw withdrawal threshold versus rats with dural IM cocktail but no compound (Male Sprague Dawley rats [3]; administration in the RVM two hours after IM cocktail, FIG. 9B): significant increase in test animal paw withdrawal threshold | facial response threshold versus rats with dural IM cocktail but no compound (Male Sprague Dawley rats [4]; administration in the RVM thirty minutes after IM cocktail, FIGS. 7A-7B): increase in facial response threshold

CNS(=O)(=O)Cc1ccc2[nH]cc(CCN(C)C)c2c1 [sumatriptan]
paw withdrawal threshold versus rats with dural IM cocktail but no compound (Male Sprague Dawley rats [3]; 0.6 mg/kg s.c. ten minutes prior to IM cocktail, FIG. 8): increase in paw withdrawal threshold | development of tactile hyperesthesia (paw withdrawal thresholds) (Male Sprague Dawley rats [3]; sumatriptan succinate 1 mg/kg s.c. five minutes prior to dural IM cocktail, two hours after dural treatment, FIG. 10): prevent or ameliorate the development of tactile hyperesthesia | induction of tactile allodynia after continuous infusion (rats [1]): induces tactile allodynia | facial response threshold versus rats with dural IM cocktail but no compound (Male Sprague Dawley rats [4]; systemic administration thirty minutes after IM cocktail, FIGS. 6A-6B): increase in facial response threshold

N[C@@H](CCC(=O)N[C@@H](CSN=O)C(=O)NCC(=O)O)C(=O)O [SNOG, s-nitrosylglutathione]
tactile hyperesthesia of the hindpaw (Male Sprague Dawley rats [5]): produced a tactile hyperesthesia effect similar to that induced by administration of the IM cocktail
